# What was measured:
# MKK6 = MKK6 (Homo sapiens, UniProt P52564); assay: Kinase panel, radiometric 33P filter binding; settings: read-out: % activity remaining
# SYK = SYK (Homo sapiens, UniProt P43405); assay: Kinase panel, radiometric 33P filter binding; settings: read-out: % activity remaining
# PAK2 = PAK2 (Homo sapiens, UniProt Q13177); assay: Kinase panel, radiometric 33P filter binding
# CLK2 = CLK2 (Homo sapiens, UniProt P49760); assay: Kinase panel, radiometric 33P filter binding; settings: read-out: % activity remaining
# Description: (§1) filter binding assay using 33P-g-ATPat the MRC PPU International Centre for Kinase Profiling, University of
# TBK1 = TBK1 (Homo sapiens, UniProt Q9UHD2); assay: Kinase panel, radiometric 33P filter binding; settings: read-out: % activity remaining
# Description: as §1
# Kinase % activity remaining s.d.
# CHK1 = CHK1 (Homo sapiens, UniProt O14757); assay: Kinase panel, radiometric 33P filter binding; settings: read-out: % activity remaining
# Description: as §1
# EPH-B4 = EPH-B4 (Homo sapiens, UniProt P54760); assay: Kinase panel, radiometric 33P filter binding; settings: read-out: % activity remaining
# Description: as §1
# FGF-R1 = FGF-R1 (Homo sapiens, UniProt P11362); assay: Kinase panel, radiometric 33P filter binding; settings: read-out: % activity remaining
# Description: as §1
# MLK3 = MLK3 (Homo sapiens, UniProt Q16584); assay: Kinase panel, radiometric 33P filter binding; settings: read-out: % activity remaining
# Description: as §1
# HER4 = HER4 (Homo sapiens, UniProt Q15303); assay: Kinase panel, radiometric 33P filter binding; settings: read-out: % activity remaining
# Description: as §1
# RSK2 = RSK2 (Homo sapiens, UniProt P51812); assay: Kinase panel, radiometric 33P filter binding; settings: read-out: % activity remaining
# Description: as §1
# p38b MAPK = p38b MAPK (Homo sapiens, UniProt Q15759); assay: Kinase panel, radiometric 33P filter binding; settings: read-out: % activity remaining
# Description: as §1
# MNK2 = MNK2 (Homo sapiens, UniProt Q9HBH9); assay: Kinase panel, radiometric 33P filter binding; settings: read-out: % activity remaining
# TLK1 = TLK1 (Homo sapiens, UniProt Q9UKI8); assay: Kinase panel, radiometric 33P filter binding; settings: read-out: % activity remaining
# Description: as §1
# JNK3 = JNK3 (Homo sapiens, UniProt P53779); assay: Kinase panel, radiometric 33P filter binding; settings: read-out: % activity remaining
# Description: as §1
# HIPK1 = HIPK1 (Homo sapiens, UniProt Q86Z02); assay: Kinase panel, radiometric 33P filter binding; settings: read-out: % activity remaining
# Description: as §1
# SRPK1 = SRPK1 (Homo sapiens, UniProt Q96SB4); assay: Kinase panel, radiometric 33P filter binding; settings: read-out: % activity remaining
# Description: as §1
# BRSK2 = BRSK2 (Homo sapiens, UniProt Q8IWQ3); assay: Kinase panel, radiometric 33P filter binding; settings: read-out: % activity remaining
# Description: as §1
# Kinase % activity remaining s.d.
# JAK3 = JAK3 (Homo sapiens, UniProt P52333); assay: Kinase panel, radiometric 33P filter binding; settings: read-out: % activity remaining
# SGK1 = SGK1 (Homo sapiens, UniProt O00141); assay: Kinase panel, radiometric 33P filter binding; settings: read-out: % activity remaining
# Description: as §1
# PHK = PHK (Homo sapiens, UniProt Q16816); assay: Kinase panel, radiometric 33P filter binding; settings: read-out: % activity remaining
# Description: as §1
# MLK1 = MLK1 (Homo sapiens, UniProt P80192); assay: Kinase panel, radiometric 33P filter binding; settings: read-out: % activity remaining
# Description: as §1
# MAPKAP-K2 = MAPKAP-K2 (Homo sapiens, UniProt P49137); assay: Kinase panel, radiometric 33P filter binding; settings: read-out: % activity remaining
# MKK1 = MKK1 (Homo sapiens, UniProt Q02750); assay: Kinase panel, radiometric 33P filter binding; settings: read-out: % activity remaining
# MARK4 = MARK4 (Homo sapiens, UniProt Q96L34); assay: Kinase panel, radiometric 33P filter binding; settings: read-out: % activity remaining
# Description: as §1
# PI5P4Kβ = target: T1, PI5P4Kβ (Homo sapiens, UniProt P78356); assay: Thermal shift assay; settings: read-out: ΔTm PI5P4Kβ, thermal shift, compound 63 μM
# T1 sequence (P78356 1-416): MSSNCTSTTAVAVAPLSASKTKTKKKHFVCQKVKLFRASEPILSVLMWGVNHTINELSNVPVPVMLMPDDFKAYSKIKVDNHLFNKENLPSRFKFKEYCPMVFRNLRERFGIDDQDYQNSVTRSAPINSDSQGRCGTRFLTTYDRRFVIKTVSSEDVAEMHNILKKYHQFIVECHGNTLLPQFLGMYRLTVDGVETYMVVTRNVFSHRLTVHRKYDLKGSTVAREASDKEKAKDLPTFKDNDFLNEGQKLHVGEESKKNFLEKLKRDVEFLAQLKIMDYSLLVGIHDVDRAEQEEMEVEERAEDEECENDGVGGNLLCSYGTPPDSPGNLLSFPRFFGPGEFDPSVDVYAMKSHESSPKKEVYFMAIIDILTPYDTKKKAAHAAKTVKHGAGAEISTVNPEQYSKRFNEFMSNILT
# PI5P4Kα = target: T2, PI5P4Kα (Homo sapiens, UniProt P48426); assay: Thermal shift assay; settings: read-out: ΔTm PI5P4Kα, thermal shift, compound 63 μM
# T2 sequence (P48426 1-406): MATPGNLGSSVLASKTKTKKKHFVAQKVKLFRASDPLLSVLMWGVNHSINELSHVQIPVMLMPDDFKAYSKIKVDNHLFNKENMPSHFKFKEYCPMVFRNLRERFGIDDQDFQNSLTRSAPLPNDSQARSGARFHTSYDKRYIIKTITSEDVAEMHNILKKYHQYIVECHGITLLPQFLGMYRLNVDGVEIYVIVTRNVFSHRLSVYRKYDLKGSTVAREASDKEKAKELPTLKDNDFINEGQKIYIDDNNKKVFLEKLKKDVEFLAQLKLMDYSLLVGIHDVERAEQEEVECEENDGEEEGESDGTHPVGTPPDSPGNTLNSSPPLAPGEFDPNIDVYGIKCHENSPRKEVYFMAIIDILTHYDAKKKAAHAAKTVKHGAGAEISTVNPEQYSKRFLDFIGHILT
# PAK2, sequence (Q13177 whole entry): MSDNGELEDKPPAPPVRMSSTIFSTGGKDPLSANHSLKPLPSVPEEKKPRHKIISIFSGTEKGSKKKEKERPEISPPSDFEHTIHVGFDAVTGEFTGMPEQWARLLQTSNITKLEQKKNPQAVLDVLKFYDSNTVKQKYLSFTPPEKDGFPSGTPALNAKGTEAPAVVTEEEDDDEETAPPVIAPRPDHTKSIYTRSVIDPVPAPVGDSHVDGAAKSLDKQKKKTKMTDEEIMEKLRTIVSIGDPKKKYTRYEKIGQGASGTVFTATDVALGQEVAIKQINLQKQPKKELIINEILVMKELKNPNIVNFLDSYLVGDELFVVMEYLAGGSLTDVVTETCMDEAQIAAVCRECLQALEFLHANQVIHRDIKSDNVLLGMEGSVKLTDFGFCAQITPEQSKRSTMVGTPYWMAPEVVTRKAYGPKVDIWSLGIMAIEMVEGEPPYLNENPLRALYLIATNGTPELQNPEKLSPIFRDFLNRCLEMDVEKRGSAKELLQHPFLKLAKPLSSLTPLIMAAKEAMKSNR
# SRPK1, sequence (Q96SB4 whole entry): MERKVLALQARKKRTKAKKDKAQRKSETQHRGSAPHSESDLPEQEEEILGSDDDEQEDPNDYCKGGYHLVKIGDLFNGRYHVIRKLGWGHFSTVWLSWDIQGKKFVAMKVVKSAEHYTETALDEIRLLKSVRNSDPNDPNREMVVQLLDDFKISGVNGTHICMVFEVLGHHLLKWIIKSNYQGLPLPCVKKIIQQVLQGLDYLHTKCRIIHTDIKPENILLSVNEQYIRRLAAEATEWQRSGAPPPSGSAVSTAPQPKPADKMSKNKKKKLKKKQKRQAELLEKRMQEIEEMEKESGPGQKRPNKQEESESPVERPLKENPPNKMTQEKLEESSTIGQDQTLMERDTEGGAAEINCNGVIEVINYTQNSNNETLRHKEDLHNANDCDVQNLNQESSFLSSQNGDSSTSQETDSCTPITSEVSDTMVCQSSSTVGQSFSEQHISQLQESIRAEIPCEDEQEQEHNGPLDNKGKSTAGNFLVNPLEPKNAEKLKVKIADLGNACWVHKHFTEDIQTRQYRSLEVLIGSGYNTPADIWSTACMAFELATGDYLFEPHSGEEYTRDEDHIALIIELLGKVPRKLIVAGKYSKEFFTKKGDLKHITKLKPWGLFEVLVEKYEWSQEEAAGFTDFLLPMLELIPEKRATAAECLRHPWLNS
# JNK3, sequence (P53779 whole entry): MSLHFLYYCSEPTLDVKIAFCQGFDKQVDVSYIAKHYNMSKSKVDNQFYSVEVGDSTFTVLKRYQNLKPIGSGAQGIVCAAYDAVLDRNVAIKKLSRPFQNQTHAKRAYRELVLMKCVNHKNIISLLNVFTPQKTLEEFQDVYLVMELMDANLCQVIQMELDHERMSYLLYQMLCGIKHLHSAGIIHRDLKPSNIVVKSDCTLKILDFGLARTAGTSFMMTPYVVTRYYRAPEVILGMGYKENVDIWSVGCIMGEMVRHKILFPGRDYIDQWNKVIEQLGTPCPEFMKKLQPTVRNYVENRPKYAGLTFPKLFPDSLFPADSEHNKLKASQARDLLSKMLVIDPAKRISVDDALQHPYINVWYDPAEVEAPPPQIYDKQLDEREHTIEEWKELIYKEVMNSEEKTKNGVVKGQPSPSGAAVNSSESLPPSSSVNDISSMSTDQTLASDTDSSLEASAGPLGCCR
# TBK1, sequence (Q9UHD2 whole entry): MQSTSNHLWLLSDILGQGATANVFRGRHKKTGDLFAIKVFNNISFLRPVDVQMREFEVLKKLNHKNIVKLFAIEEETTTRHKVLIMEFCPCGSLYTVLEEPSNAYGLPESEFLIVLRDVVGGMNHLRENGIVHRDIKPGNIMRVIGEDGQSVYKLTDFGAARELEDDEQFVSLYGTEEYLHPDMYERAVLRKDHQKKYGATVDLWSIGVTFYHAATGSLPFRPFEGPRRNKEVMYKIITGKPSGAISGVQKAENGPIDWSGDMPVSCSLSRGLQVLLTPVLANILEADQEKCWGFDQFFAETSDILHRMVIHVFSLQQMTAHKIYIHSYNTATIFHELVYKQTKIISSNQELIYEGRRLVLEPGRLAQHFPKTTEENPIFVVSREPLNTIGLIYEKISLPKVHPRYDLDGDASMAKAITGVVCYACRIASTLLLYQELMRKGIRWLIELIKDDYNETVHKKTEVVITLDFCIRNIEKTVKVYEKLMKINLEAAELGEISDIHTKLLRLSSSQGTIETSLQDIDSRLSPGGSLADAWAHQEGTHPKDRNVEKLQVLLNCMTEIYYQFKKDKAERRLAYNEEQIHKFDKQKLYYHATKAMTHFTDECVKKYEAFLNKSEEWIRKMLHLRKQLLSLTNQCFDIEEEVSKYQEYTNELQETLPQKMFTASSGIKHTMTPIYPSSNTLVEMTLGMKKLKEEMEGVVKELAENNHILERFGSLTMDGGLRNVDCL
# MAPKAP-K2, sequence (P49137 whole entry): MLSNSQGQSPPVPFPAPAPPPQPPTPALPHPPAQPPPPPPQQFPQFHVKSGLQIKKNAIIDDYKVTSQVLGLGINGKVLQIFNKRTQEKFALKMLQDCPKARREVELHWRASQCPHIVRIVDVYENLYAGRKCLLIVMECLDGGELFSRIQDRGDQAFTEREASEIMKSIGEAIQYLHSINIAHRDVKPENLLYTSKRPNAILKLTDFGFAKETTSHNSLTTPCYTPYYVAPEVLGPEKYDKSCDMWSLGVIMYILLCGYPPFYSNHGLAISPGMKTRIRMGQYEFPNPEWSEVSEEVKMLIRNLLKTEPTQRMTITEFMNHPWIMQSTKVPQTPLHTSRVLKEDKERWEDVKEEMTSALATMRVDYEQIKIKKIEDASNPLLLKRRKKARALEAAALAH
# JAK3, sequence (P52333 whole entry): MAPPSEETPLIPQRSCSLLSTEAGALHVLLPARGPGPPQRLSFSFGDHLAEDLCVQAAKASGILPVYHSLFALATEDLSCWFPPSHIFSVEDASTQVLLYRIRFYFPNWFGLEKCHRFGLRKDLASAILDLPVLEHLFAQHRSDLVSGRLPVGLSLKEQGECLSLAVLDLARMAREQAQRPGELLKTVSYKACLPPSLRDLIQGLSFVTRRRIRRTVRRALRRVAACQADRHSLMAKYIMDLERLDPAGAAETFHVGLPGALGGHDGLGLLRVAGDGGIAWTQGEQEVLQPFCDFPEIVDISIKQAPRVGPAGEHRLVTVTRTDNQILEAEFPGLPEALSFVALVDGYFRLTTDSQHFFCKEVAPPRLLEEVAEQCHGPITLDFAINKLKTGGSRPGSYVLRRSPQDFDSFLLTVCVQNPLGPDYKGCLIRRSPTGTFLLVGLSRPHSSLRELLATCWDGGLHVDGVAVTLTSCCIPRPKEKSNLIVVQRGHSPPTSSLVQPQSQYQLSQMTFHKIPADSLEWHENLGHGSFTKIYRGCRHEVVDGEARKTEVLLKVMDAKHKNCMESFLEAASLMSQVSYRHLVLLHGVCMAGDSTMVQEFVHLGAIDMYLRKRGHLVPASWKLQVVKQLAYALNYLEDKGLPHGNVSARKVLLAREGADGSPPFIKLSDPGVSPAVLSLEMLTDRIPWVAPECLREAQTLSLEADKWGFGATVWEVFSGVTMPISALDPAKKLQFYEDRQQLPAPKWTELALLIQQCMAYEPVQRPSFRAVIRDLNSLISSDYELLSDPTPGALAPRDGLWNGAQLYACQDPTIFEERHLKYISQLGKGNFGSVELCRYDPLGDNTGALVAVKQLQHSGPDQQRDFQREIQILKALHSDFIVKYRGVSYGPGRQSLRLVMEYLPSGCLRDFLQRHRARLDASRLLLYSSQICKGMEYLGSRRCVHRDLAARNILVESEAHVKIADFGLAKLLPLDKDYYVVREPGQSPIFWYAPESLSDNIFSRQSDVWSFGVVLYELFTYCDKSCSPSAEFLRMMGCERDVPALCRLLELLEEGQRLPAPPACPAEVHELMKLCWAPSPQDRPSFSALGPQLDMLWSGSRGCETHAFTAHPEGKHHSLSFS
# BRSK2, sequence (Q8IWQ3 whole entry): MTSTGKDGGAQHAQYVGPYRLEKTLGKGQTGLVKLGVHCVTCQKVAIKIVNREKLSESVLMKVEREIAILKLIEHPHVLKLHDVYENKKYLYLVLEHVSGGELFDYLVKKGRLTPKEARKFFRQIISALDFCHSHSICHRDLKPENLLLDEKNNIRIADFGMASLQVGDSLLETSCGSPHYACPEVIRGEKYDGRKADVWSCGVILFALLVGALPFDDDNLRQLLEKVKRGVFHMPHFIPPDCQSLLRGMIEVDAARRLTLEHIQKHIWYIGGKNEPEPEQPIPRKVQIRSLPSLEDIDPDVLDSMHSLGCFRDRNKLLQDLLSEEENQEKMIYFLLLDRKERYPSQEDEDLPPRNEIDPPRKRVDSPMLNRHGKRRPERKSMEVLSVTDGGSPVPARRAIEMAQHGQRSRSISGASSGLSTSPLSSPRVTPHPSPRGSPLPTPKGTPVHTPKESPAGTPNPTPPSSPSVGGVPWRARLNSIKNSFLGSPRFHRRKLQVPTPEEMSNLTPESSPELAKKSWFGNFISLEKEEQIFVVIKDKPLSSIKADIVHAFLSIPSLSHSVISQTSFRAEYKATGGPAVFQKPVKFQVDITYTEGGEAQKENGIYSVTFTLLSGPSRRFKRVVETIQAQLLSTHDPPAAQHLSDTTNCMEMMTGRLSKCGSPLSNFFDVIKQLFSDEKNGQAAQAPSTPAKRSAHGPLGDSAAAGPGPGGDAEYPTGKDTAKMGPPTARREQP
# p38b MAPK, sequence (Q15759 whole entry): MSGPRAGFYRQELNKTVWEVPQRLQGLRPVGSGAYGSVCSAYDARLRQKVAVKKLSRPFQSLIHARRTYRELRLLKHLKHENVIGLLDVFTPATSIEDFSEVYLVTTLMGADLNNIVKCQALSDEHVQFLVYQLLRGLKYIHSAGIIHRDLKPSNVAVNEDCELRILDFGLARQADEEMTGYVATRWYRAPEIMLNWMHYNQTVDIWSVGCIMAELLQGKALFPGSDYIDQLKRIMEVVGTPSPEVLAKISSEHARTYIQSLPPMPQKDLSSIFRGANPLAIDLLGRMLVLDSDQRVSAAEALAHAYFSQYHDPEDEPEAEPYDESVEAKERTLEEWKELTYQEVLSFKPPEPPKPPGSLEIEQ
smiles,measurement,setting,value
CC(C)c1ccccc1-c1nc(NCc2ccccn2)c2c(ccn2C)n1 [Compound 40],remaining activity at 10 µM,MKK6,90%
same,remaining activity at 10 µM,SYK,91%
same,% activity remaining,"PAK2; PAK2, 10 μM, 10 µM",< 50%
same,remaining activity at 10 µM,"PAK2; read-out: % activity remaining, PAK2, 10 μM",45%
same,remaining activity at 10 µM,CLK2,94%
same,remaining activity at 10 µM,TBK1,93%
same,remaining activity at 10 µM,CHK1,96%
same,remaining activity at 10 µM,EPH-B4,120%
same,remaining activity at 10 µM,FGF-R1,92%
same,remaining activity at 10 µM,MLK3,90%
same,remaining activity at 10 µM,HER4,112%
same,remaining activity at 10 µM,RSK2,106%
same,remaining activity at 10 µM,p38b MAPK,94%
same,remaining activity at 10 µM,MNK2,117%
same,remaining activity at 10 µM,TLK1,115%
same,remaining activity at 10 µM,JNK3,97%
same,remaining activity at 10 µM,HIPK1,104%
same,remaining activity at 10 µM,SRPK1,93%
same,remaining activity at 10 µM,BRSK2,83%
same,remaining activity at 10 µM,JAK3,97%
same,remaining activity at 10 µM,SGK1,98%
same,remaining activity at 10 µM,PHK,107%
same,remaining activity at 10 µM,MLK1,89%
same,remaining activity at 10 µM,MAPKAP-K2,123%
same,remaining activity at 10 µM,MKK1,92%
same,remaining activity at 10 µM,MARK4,105%
"FC(F)(F)c1ccccc1-c1nc(NCc2cccs2)c2ccccc2n1 [Compound 1, NIH-12848, reference compound]",ΔTm at 63 µM,PI5P4Kβ,0.6 ± 0.3 °C
same,ΔTm at 63 µM,PI5P4Kα,-0.2 ± 0.4 °C

# From article PMC9097471, “Development of Selective Phosphatidylinositol 5-Phosphate 4-Kinase γ Inhibitors with a Non-ATP-competitive, Allosteric Binding Mode” (Journal of Medicinal Chemistry, 2022)
